According to patent EP0591583B1, “Benzo (f) quinolinones as 5-alpha-reductase inhibitors” (ELI LILLY AND COMPANY, priority 1992, dated 1994):

target: T1, 5α-reductase (Homo sapiens, UniProt P18405); experiment: 5α-Reductase activity in Hs68 human genital skin fibroblasts (conversion of labeled testosterone, TLC analysis); format: cell-based; conditions: Hs68
T1 construct: host or cells: Hs68 human genital skin fibroblasts
T1 sequence (P18405 1-259): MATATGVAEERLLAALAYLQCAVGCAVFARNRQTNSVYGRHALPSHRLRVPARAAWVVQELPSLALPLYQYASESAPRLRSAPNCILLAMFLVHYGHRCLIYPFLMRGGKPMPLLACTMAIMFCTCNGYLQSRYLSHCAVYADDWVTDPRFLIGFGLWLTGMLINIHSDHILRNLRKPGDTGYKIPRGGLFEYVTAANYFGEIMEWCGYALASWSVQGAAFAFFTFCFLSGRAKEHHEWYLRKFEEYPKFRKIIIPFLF
Experimental: Cell Culture: 5α-Reductase activity was measured using Hs68 human genital skin fibroblasts which were originally purchased from the American Type Culture Collection (Rockville, MD). The cells were grown in Dulbecco's Modified Eagle's Medium (DMEM) plus 10% stripped fetal bovine serum which was supplemented with amphotericin B ([…]) and gentamicin ([…]) (GIBCO, Grand Island, NY). The serum was stripped of endogenous steroids by incubation with dextran-coated charcoal prior to its addition to the media. The cells were maintained at 37°C in an atmosphere of 95% air, 5% CO2 and were passaged every 7-10 days by exposure to a trypsin-EDTA solution (0.025% trypsin, 0.265 mM EDTA). Prior to the assay the Hs68 cells were harvested and plated in Falcon 6-well plates (Becton Dickinson Labware, Lincoln Park, NJ) at a density of 6 x 10^4 cells per well. The cells were allowed to grow for 4-5 days or until they reached approximately 80% confluence.
Assay Method I: The substrate was prepared by dissolving unlabeled testosterone (Sigma Chemical Co., St. Louis, MO) in absolute ethanol followed by the addition of [7-^3H (N)]-testosterone (23.3 Ci/mmole, New England Nuclear, Boston, MA). The steroid solution was taken to dryness under a stream of nitrogen and then reconstituted in media.
Assay Method II: The substrate used for this method was [^14C]-testosterone (50 mCi/mmol) (New England Nuclear, Boston, MA). An aliquot of the substrate was taken to dryness under a stream of nitrogen. After the addition of 30 µl of ethanol, the testosterone was dissolved in an appropriate volume of media.
Sample Preparation: The test compounds were brought up in absolute ethanol in order to achieve the desired concentration. Subsequent dilutions of the test compounds with media were performed by the Biomek 1000 Automated Laboratory Workstation (Beckman Instruments, Palo Alto, CA). The existing media in the sample wells was aspirated and replaced with fresh media. Test compound was then added to the wells followed by the addition of 0.5 ml of substrate. The volume of the incubation mixture was maintained at 2.0 ml. The final substrate concentration was 12 µM. The concentration of the test compounds ranged from 0.001-150 µM. An additional three wells (background) containing media and substrate but no cells were also included to account for the non-enzymatic metabolism of the substrate. The plates were returned to the incubator and incubated for four hours.
At the end of the incubation the media was collected and transferred to an extraction tube containing 5 ml of toluene-ethanol (9:1), to which has been added 20-250 µg each of unlabeled carrier steroids (estriol, estradiol, estrone, 5α-androstan-3α,17β-diol, 5α-androstan-3β,17β-diol, 4-androstene-3,17-dione, 5α-androstan-3,17-dione, testosterone, and 5α-dihydrotestosterone) (Steraloids, Inc., Wilton, NH). In the case of Assay Method I the extraction tube also contained 1,000 and 10,000 dpm of [4-^14C]-dihydrotestosterone (50-60 mCi/mmol) and [4-^14C]-testosterone (50 mCi/mmol) (New England Nuclear, Boston, MA), respectively. The [^14C]-steroids were included as recovery standards to quantify procedural losses. A small amount of NaCl was also added to the extraction tubes to prevent foaming. The samples were vortexed for approximately 30 seconds and then centrifuged for 10 minutes at 500 x g. The organic phase was collected and the samples taken to dryness, redissolved in dichloromethane-methanol (9:1) and were analyzed by thin layer chromatography using one of the methods described below.
Chromatography Method I (two-dimensional): The extracted samples were appled to silica gel 60F254, 0.25 mm thick, thin layer chromatography plates (EM Science, Cincinnati, OH). The plates were developed in the first dimension with a solvent system containing dichloromethane-ethyl acetate-methanol-acetic acid (160:38:1.5:0.5, Mallinckrodt Inc., Paris, KY).

| SMILES | inhibition at 1 µM [%] |
| --- | --- |
| CN1C(=O)CC[C@@H]2c3ccc(Cl)cc3CC[C@H]21 (racemic) [Example 6, trans-dl-8-chloro-4-methyl-1,2,3,4,4a,5,6,10b-octahydrobenzo[f]quinolin-3-one] | 100 |

same assay, conditions: Hs68, test compound 0.316 µM; Hs68 cells; substrate testosterone 12 µM; incubated four hours; read-out: % Inhibition

| SMILES | inhibition at 0.316 µM [%] |
| --- | --- |
| CN1C(=O)CC[C@@H]2c3ccc(I)cc3CC[C@H]21 (racemic) [Example 3, trans-dl-8-iodo-4-methyl-1,2,3,4,4a,5,6,10b-octahydrobenzo[f]-quinolin-3-one] | 100 |
| O=C1CC[C@@H]2c3cc(Cl)c(Cl)cc3CC[C@H]2N1 (racemic) [Example 4, trans-dl-8,9-dichloro-1,2,3,4,4a,5,6,10b-octahydrobenzo[f]quinolin-3-one] | 82.1 |
| CCOC(=O)C=Cc1ccc2c(c1)CCC1C2CCC(=O)N1C (racemic) [Example 16, trans-dl-8-ethoxycarbonylethenediyl-4-methyl-1,2,3,4,4a,5,6,10b-octahydrobenzo[f]quinolin-3-one] | 80 |
| CCOC(=O)CCc1ccc2c(c1)CCC1C2CCC(=O)N1C (racemic) [Example 22, trans-dl-8-ethoxycarbonylethanediyl-4-methyl-1,2,3,4,4a,5,6,10b-octahydrobenzo[f]quinolin-3-one] | 40.7 |
| COC(=O)C=Cc1ccc2c(c1)CCC1C2CCC(=O)N1C (racemic) [Example 23, trans-dl-8-methoxycarbonylethenediyl-4-methyl-1,2,3,4,4a,5,6,10b-octahydrobenzo[f]quinolin-3-one] | 76.5 |
| CN1C(=O)CCC2c3ccc(C=CC(=O)O)cc3CCC21 (racemic) [Example 24, trans-dl-8-carboxyethenediyl-4-methyl-1,2,3,4,4a,5,6,10b-octahydrobenzo[f]quinolin-3-one] | 4.96 |
| CN1C(=O)CCC2c3ccc(C=CC(=O)NC(C)(C)C)cc3CCC21 (racemic) [Example 25, trans-dl-8-t-butylaminocarbonylethenediyl-4-methyl-1,2,3,4,4a,5,6,10b-octahydrobenzo[f]quinolin-3-one] | 35.9 |
| CC1(C)CC2NC(=O)CCC2c2ccc(Br)cc21 (racemic) [Example 27, trans-dl-8-bromo-6,6-dimethyl-1,2,3,4,4a,5,6,10b-octahydrobenzo[f]quinolin-3-one] | 44.7 |
| CC(C)(C)c1ccc2c(c1)CCC1NC(=O)CCC21 (racemic) [Example 30, trans-dl-8-t-butyl-1,2,3,4,4a,5,6,10b-octahydrobenzo[f]quinolin-3-one] | 38.5 |
| CN1C(=O)CCC2c3ccc(C(C)(C)C)cc3CCC21 (racemic) [Example 31, trans-dl-8-t-butyl-4-methyl-1,2,3,4,5,6,10b-octahydrobenzo[f]quinolin-3-one] | 82.1 |

same assay, conditions: Hs68, test compound 1.00 µM; Hs68 cells; substrate testosterone 12 µM; incubated four hours

| SMILES | inhibition at 1 µM [%] |
| --- | --- |
| CN1C(=O)CC[C@@H]2c3ccc(Br)cc3CC[C@H]21 (racemic) [Example 1A, trans-dl-8-bromo-4-methyl-1,2,3,4,4a,5,6,10b-octahydrobenzo[f]quinolin-3-one] | 98 |
| CN1C(=O)CC[C@@H]2c3ccc(Br)cc3CC[C@@H]21 (racemic) [Example 1B, cis-dl-8-bromo-4-methyl-1,2,3,4,4a,5,6,10b-octahydrobenzo[f]quinolin-3-one] | 92.7 |
| CN1C(=O)CC[C@@H]2c3ccc(Cl)cc3CC[C@@H]21 (racemic) [Example 7, cis-dl-8-chloro-4-methyl-1,2,3,4,4a,5,6,10b-octahydrobenzo[f]quinolin-3-one] | 100 |

same assay, conditions: Hs68, test compound 1.00 µM; Hs68 cells; substrate testosterone 12 µM; incubated four hours; read-out: % Inhibition

| SMILES | inhibition at 1 µM [%] |
| --- | --- |
| O=C1CC[C@@H]2c3ccc(Br)cc3CC[C@H]2N1 (racemic) [Example 2, trans-dl-8-bromo-1,2,3,4,4a,5,6,10b-octahydrobenzo[f]quinolin-3-one] | 100 |
| CN1C(=O)CC[C@@H]2c3cc(Cl)c(Cl)cc3CC[C@H]21 (racemic) [Example 5, trans-dl-8,9-dichloro-4-methyl-1,2,3,4,4a,5,6,10b-octahydrobenzo[f]quinolin-3-one] | 100 |
| Cc1ccc2c(c1)CC[C@@H]1[C@@H]2CCC(=O)N1C (racemic) [Example 8, trans-dl-4,8-dimethyl-1,2,3,4,4a,5,6,10b-octahydrobenzo[f]quinolin-3-one] | 100 |
| Cc1ccc2c(c1)CC[C@H]1[C@@H]2CCC(=O)N1C (racemic) [Example 9, cis-dl-4,8-dimethyl-1,2,3,4,4a,5,6,10b-octahydrobenzo[f]quinolin-3-one] | 100 |
| CN1C(=O)CC[C@@H]2c3ccc(F)cc3CC[C@H]21 (racemic) [Example 10, trans-dl-8-fluoro-4-methyl-1,2,3,4,4a,5,6,10b-octahydrobenzo[f]quinolin-3-one] | 100 |
| CN1C(=O)CC[C@@H]2c3ccc(F)cc3CC[C@@H]21 (racemic) [Example 11, cis-dl-8-fluoro-4-methyl-1,2,3,4,4a,5,6,10b-octahydrobenzo[f]quinolin-3-one] | 59.2 |
| O=C1CCC2c3ccc(Cl)cc3CCC2N1 (racemic) [Example 17, trans-dl-8-chloro-1,2,3,4,4a,5,6,10b-octahydrobenzo[f]quinolin-3-one] | 100 |
| COc1ccc2c(c1)CCC1NC(=O)CCC21 (racemic) [Example 18, trans-dl-8-methoxy-1,2,3,4,4a,5,6,10b-octahydrobenzo[f]quinolin-3-one] | 69.8 |
| COc1ccc2c(c1)CCC1C2CCC(=O)N1C (racemic) [Example 19, trans-dl-8-methoxy-4-methyl-1,2,3,4,4a,5,6,10b-octahydrobenzo[f]quinolin-3-one] | 93.2 |
| Cc1ccc2c(c1)CCC1NC(=O)CCC21 (racemic) [Example 20, trans-dl-8-methyl-1,2,3,4,4a,5,6,10b-octahydrobenzo[f]quinolin-3-one] | 86.6 |
| O=C1CCC2c3ccccc3CCC2N1 (racemic) [Example 21, trans-dl-1,2,3,4,4a,5,6,10b-octahydrobenzo[f]quinolin-3-one] | 100 |

same assay, conditions: Hs68, test compound 3.16 µM; Hs68 cells; substrate testosterone 12 µM; incubated four hours

| SMILES | inhibition at 3.16 µM [%] |
| --- | --- |
| O=C1CCC2c3ccc(F)cc3CCC2N1 (racemic) [Example 15, trans-dl-8-fluoro-1,2,3,4,4a,5,6,10b-octahydrobenzo[f]quinolin-3-one] | 100 |

same assay, conditions: Hs68, test compound 15.00 µM; Hs68 cells; substrate testosterone 12 µM; incubated four hours

| SMILES | inhibition at 15 µM [%] |
| --- | --- |
| O=C1CCC2c3ccccc3CCC2N1 (racemic) [Example 14, cis-dl-1,2,3,4,4a,5,6,10b-octa-hydrobenzo[f]quinolin-3-one] | 31.7 |

same assay, conditions: test compound 0.316 µM; Hs68 cells; substrate testosterone 12 µM; incubated four hours

| SMILES | % Inhibition [%] |
| --- | --- |
| CC1CC2c3ccc(Cl)cc3CCC2N(C)C1=O (racemic) [Example 26A, trans-dl-8-chloro-2-(α-methyl)-4-methyl-1,2,3,4,4a,5,6,10b-octahydrobenzo[f]quinolin-3-one] | 82.56 |
| CC1CC2c3ccc(Cl)cc3CCC2N(C)C1=O (racemic) [Example 26B, trans-dl-8-chloro-2-(β-methyl)-4-methyl-1,2,3,4,4a,5,6,10b-octahydrobenzo[f]quinolin-3-one] | 76.36 |
